Measurements as given in PubChem BioAssay (NCI).
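48-hour exposure; five concentrations; linearly interpolated endpoints. TGI is the concentration that stops growth completely.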

Legend:
Assay in all cases: growth of human tumour cells (NCI), 48 h
A498 renal = system: A498 renal
A549 NSCLC = system: A549 NSCLC
ACHN renal = system: ACHN renal
BT-549 breast = system: BT-549 breast
CAKI-1 renal = system: CAKI-1 renal
COLO 205 colon = system: COLO 205 colon
DU-145 prostate = system: DU-145 prostate
EKVX NSCLC = system: EKVX NSCLC
HCC-2998 colon = system: HCC-2998 colon
HCT-116 colon = system: HCT-116 colon
HCT-15 colon = system: HCT-15 colon
HL-60(TB) leukemia = system: HL-60(TB) leukemia
HOP-62 NSCLC = system: HOP-62 NSCLC
HOP-92 NSCLC = system: HOP-92 NSCLC
HT29 colon = system: HT29 colon
IGROV1 ovarian = system: IGROV1 ovarian
K-562 leukemia = system: K-562 leukemia
KM12 colon = system: KM12 colon
LOX IMVI melanoma = system: LOX IMVI melanoma
M14 melanoma = system: M14 melanoma
MALME-3M melanoma = system: MALME-3M melanoma
MCF7 breast = system: MCF7 breast
MDA-MB-231 breast = system: MDA-MB-231 breast
MDA-MB-435 = system: MDA-MB-435
MDA-N = system: MDA-N
MOLT-4 leukemia = system: MOLT-4 leukemia
NCI-H226 lung = system: NCI-H226 lung
NCI-H23 lung = system: NCI-H23 lung
NCI-H522 lung = system: NCI-H522 lung
OVCAR-3 ovarian = system: OVCAR-3 ovarian
OVCAR-4 ovarian = system: OVCAR-4 ovarian
OVCAR-5 ovarian = system: OVCAR-5 ovarian
OVCAR-8 ovarian = system: OVCAR-8 ovarian
PC-3 prostate = system: PC-3 prostate
RXF 393 renal = system: RXF 393 renal
SF-268 CNS = system: SF-268 CNS
SF-295 CNS = system: SF-295 CNS
SF-539 CNS = system: SF-539 CNS
SK-MEL-2 melanoma = system: SK-MEL-2 melanoma
SK-MEL-28 melanoma = system: SK-MEL-28 melanoma
SK-MEL-5 melanoma = system: SK-MEL-5 melanoma
SK-OV-3 ovarian = system: SK-OV-3 ovarian
SN12C renal = system: SN12C renal
SNB-19 CNS = system: SNB-19 CNS
SNB-75 CNS = system: SNB-75 CNS
SR leukemia = system: SR leukemia
SW-620 colon = system: SW-620 colon
T-47D breast = system: T-47D breast
TK-10 renal = system: TK-10 renal
U251 CNS = system: U251 CNS
UACC-257 melanoma = system: UACC-257 melanoma
UACC-62 melanoma = system: UACC-62 melanoma
UO-31 renal = system: UO-31 renal
786-0 renal = system: 786-0 renal
CCRF-CEM leukemia = system: CCRF-CEM leukemia
NCI/ADR-RES ovarian = system: NCI/ADR-RES ovarian
RPMI-8226 leukemia = system: RPMI-8226 leukemia

`CN1CCN(CCCCN2c3ccccc3Sc3ccc(C(=O)c4ccccc4)cc32)CC1` showed a TGI (A498 renal) of 3.12 µM, a TGI (A549 NSCLC) of 3.55 µM and a TGI (ACHN renal) of 3.06 µM. It also gave a TGI (BT-549 breast) of 3.04 µM, a TGI (CAKI-1 renal) of 2.75 µM and a TGI (COLO 205 colon) of 3.28 µM. It also gave a TGI (DU-145 prostate) of 6.73 µM, a TGI (EKVX NSCLC) of 15.5 µM and a TGI (HCC-2998 colon) of 2.94 µM. The TGI (HCT-116 colon) was 3.29 µM, the TGI (HCT-15 colon) was 3.06 µM and the TGI (HL-60(TB) leukemia) was 3.66 µM. For the same molecule, the TGI (HOP-62 NSCLC) was 3.16 µM, the TGI (HOP-92 NSCLC) was 4.68 µM and the TGI (HT29 colon) was 2.6 µM. It also gave a TGI (IGROV1 ovarian) of 3.19 µM, a TGI (K-562 leukemia) of 2.79 µM and a TGI (KM12 colon) of 2.49 µM. For the same molecule, the TGI (LOX IMVI melanoma) was 3.22 µM, the TGI (M14 melanoma) was 3.32 µM and the TGI (MALME-3M melanoma) was 7.3 µM. For the same molecule, the TGI (MCF7 breast) was 3.65 µM, the TGI (MDA-MB-231 breast) was 3.38 µM and the TGI (MDA-MB-435) was 3.24 µM. It also gave a TGI (MDA-N) of 2.92 µM, a TGI (MOLT-4 leukemia) of 3.43 µM and a TGI (NCI-H226 lung) of 3.7 µM. It also gave a TGI (NCI-H23 lung) of 3.71 µM, a TGI (NCI-H522 lung) of 3.44 µM and a TGI (OVCAR-3 ovarian) of 3.71 µM. For the same molecule, the TGI (OVCAR-4 ovarian) was 6.13 µM, the TGI (OVCAR-5 ovarian) was 7.43 µM and the TGI (OVCAR-8 ovarian) was 2.97 µM. For the same molecule, the TGI (PC-3 prostate) was 2.83 µM, the TGI (RXF 393 renal) was 2.57 µM and the TGI (SF-268 CNS) was 13 µM. The TGI (SF-295 CNS) was 3.45 µM, the TGI (SF-539 CNS) was 3.41 µM and the TGI (SK-MEL-2 melanoma) was 3.41 µM. It also gave a TGI (SK-MEL-28 melanoma) of 2.85 µM, a TGI (SK-MEL-5 melanoma) of 3.08 µM and a TGI (SK-OV-3 ovarian) of 2.94 µM. For the same molecule, the TGI (SN12C renal) was 3.19 µM, the TGI (SNB-19 CNS) was 3.45 µM and the TGI (SNB-75 CNS) was 2.58 µM. The TGI (SR leukemia) was 4.61 µM, the TGI (SW-620 colon) was 3.2 µM and the TGI (T-47D breast) was 45.4 µM. It also gave a TGI (TK-10 renal) of 3.11 µM, a TGI (U251 CNS) of 3.09 µM and a TGI (UACC-257 melanoma) of 3.36 µM. The TGI (UACC-62 melanoma) was 2.52 µM and the TGI (UO-31 renal) was 6.27 µM.
With `CO/C(N)=C(\C#N)N=Cc1cccnc1` the TGI (786-0 renal) was greater than 100 µM, the TGI (A498 renal) was greater than 100 µM and the TGI (A549 NSCLC) was greater than 100 µM. For the same molecule, the TGI (BT-549 breast) was greater than 100 µM, the TGI (CAKI-1 renal) was greater than 100 µM and the TGI (CCRF-CEM leukemia) was greater than 100 µM. The TGI (COLO 205 colon) was greater than 100 µM, the TGI (DU-145 prostate) was greater than 100 µM and the TGI (EKVX NSCLC) was greater than 100 µM. For the same molecule, the TGI (HCC-2998 colon) was greater than 100 µM, the TGI (HCT-116 colon) was greater than 100 µM and the TGI (HCT-15 colon) was greater than 100 µM. For the same molecule, the TGI (HL-60(TB) leukemia) was greater than 100 µM, the TGI (HOP-62 NSCLC) was greater than 100 µM and the TGI (HOP-92 NSCLC) was greater than 100 µM. For the same molecule, the TGI (HT29 colon) was greater than 100 µM, the TGI (IGROV1 ovarian) was greater than 100 µM and the TGI (K-562 leukemia) was greater than 100 µM. It also gave a TGI (KM12 colon) greater than 100 µM, a TGI (LOX IMVI melanoma) greater than 100 µM and a TGI (M14 melanoma) greater than 100 µM. The TGI (MALME-3M melanoma) was greater than 100 µM, the TGI (MCF7 breast) was greater than 100 µM and the TGI (MDA-MB-231 breast) was greater than 100 µM. It also gave a TGI (MDA-MB-435) greater than 100 µM, a TGI (MDA-N) greater than 100 µM and a TGI (MOLT-4 leukemia) greater than 100 µM. The TGI (NCI-H226 lung) was greater than 100 µM, the TGI (NCI-H23 lung) was greater than 100 µM and the TGI (NCI/ADR-RES ovarian) was greater than 100 µM. For the same molecule, the TGI (OVCAR-3 ovarian) was greater than 100 µM, the TGI (OVCAR-4 ovarian) was greater than 100 µM and the TGI (OVCAR-5 ovarian) was greater than 100 µM. The TGI (OVCAR-8 ovarian) was greater than 100 µM, the TGI (PC-3 prostate) was greater than 100 µM and the TGI (RPMI-8226 leukemia) was greater than 100 µM. It also gave a TGI (RXF 393 renal) greater than 100 µM, a TGI (SF-268 CNS) greater than 100 µM and a TGI (SF-295 CNS) greater than 100 µM. It also gave a TGI (SF-539 CNS) greater than 100 µM, a TGI (SK-MEL-2 melanoma) greater than 100 µM and a TGI (SK-MEL-28 melanoma) greater than 100 µM. The TGI (SK-MEL-5 melanoma) was greater than 100 µM, the TGI (SK-OV-3 ovarian) was greater than 100 µM and the TGI (SN12C renal) was greater than 100 µM. For the same molecule, the TGI (SNB-75 CNS) was greater than 100 µM, the TGI (SW-620 colon) was greater than 100 µM and the TGI (T-47D breast) was greater than 100 µM. It also gave a TGI (TK-10 renal) greater than 100 µM, a TGI (U251 CNS) greater than 100 µM and a TGI (UACC-257 melanoma) greater than 100 µM. It also gave a TGI (UACC-62 melanoma) greater than 100 µM.
